Columns and labels:
Type in all cases: physicochemical
[1] = Suspension of clothianidin in 10-34-0 aqueous fertilizer, effect of concentration on stability (Example 3); settings: review of table 4
Description: Various amounts of clothianidin were added to 10-34-0 fertilizer. Samples were shaken by hand until homogeneous.

[2] = Storage stability of 40% clothianidin SC in 10-34-0 with wetting agent Witcolate D-510 (Example 5); settings: 10-34-0 with Witcolate D-510
Description: The test samples were prepared by adding 60 grams of 10-34-0 fertilizer (from Plant Food) to a bottle. Then various amounts of Witcolate D-510 (2-ethylhexyl sulfate) were added to the 10-34-0 fertilizer and mixed well. Finally, 40 grams of clothianidin (technical grade) was added to the mixture and mixed well by shaking by hand.

[3] = Stability of 50% clothianidin in 50% URAN 32 fertilizer (Example 6)
Description: 0.5 g Witcolate D-510 surfactant was added into 100 g URAN 32 fertilizer solution (50 wt % URAN 32 in water). […] Then 100 g clothianidin was added to the resulting solution and mixed well by hand-shaking. This sample was stable and had about 10% top clear with a smooth bottom suspension after 2 weeks at 40° C.
(§1) In other experiments, 0.3% of a pH adjusting agent (40 wt % Citric acid), was included in the SC sample (homogenized sample) and no noticeable effect was observed on stability. Viscosity measurements were made with a Brookfield viscometer at various speeds (rpm) at room temperature with a #64 spindle. This sample was very viscous but it was highly shear-thinning.

[4] = Brookfield viscosity of 50% clothianidin in 50% URAN 32; settings: #64 spindle
Excerpt: as §1

## CN/C(=N\[N+](=O)[O-])NCc1cnc(Cl)s1 [clothianidin]
[1]
  suspension of the powder in 10-34-0: without crystal formation and without coagulation
[2]
  clothianidin concentration above which the SC was difficult to prepare: greater than 40 wt %
[3]; 100 g clothianidin, 100 g URAN 32 fertilizer solution, 0.5 g Witcolate D-510, hand-shaking
  stability: stable
[3]; URAN 32, all concentrations
  behaviour of the solid in URAN 32: sank to the bottom at all concentrations
[3]; URAN 32 system
  clothianidin concentration above which a paste resulted: higher than 55 wt %
[3]; same composition, homogenization method
  separation: did not show noticeable separation
[3]; same sample, hand-shaking, after 2 weeks at 40° C.
  top clear: about 10%
[4]; 1 RPM
  Viscosity, mPa-s, 24° C.: 10200 mPa-s
[4]; 2 RPM
  Viscosity, mPa-s, 24° C.: 6900 mPa-s
[4]; 4 RPM
  Viscosity, mPa-s, 24° C.: 3900 mPa-s
[4]; 10 RPM
  Viscosity, mPa-s, 24° C.: 2300 mPa-s
[4]; 20 RPM
  Viscosity, mPa-s, 24° C.: 1500 mPa-s
[4]; 50 RPM
  Viscosity, mPa-s, 24° C.: 1300 mPa-s
[4]; 100 RPM
  Viscosity, mPa-s, 24° C.: 1200 mPa-s

Source: patent publication US20180265423A1, “Pesticide Dispersion in Concentrated Aqueous Fertilizer Solution” (priority 2014, published 2018)
